According to US8883963B2 (Cadila Healthcare Limited, priority 2007, dated 2014):

Tests used:
[1] = system: RIN5F (Rat Insulinoma) cells; experiment: In vitro glucose-dependent insulin secretion (RIN5F cell assay screening protocol); type: cell-based; settings: 16.7 mM glucose load
Human GLP-1 receptor = molecular target: T1, Human GLP-1 receptor (Homo sapiens, UniProt P43220); experiment: In vitro Human GLP-1 R agonist activity (cyclic AMP determination) in CHO/human GLP1R cells; type: cell-based
T1 construct: The full-length cDNA was cloned in pcDNA3.1(+); expressed in transfected cells

DPP IV = DPP IV (Homo sapiens, UniProt P27487); experiment: Stability against DPP IV enzyme; type: in vitro ADME; settings: 37° C.; for % degradation of peptidomimetics in 24 h when incubated with DPP-IV enzyme: 2 μM peptidomimetic; for half-life at 2 μM: DPP IV enzyme, pH 7.8, 2 μM peptidomimetic, read-out: half-life (t1/2) when incubated with DPP-IV enzyme
Description: (§1) Reactions were terminated by the addition of TFA/H2O (15 mL, 10% (v/v)). […] The column was equilibrated with TFA/H20, at a flow rate of 1 mL/min.

[2] = Stability in human plasma; type: in vitro ADME; settings: 2 μM peptidomimetic, pooled human plasma, 37° C.; for half-life at 2 μM: pH 7.8, read-out: half-life (t1/2) when incubated with human plasma
Description: as §1

[3] = Stability in simulated gastric fluid; type: in vitro ADME; settings: 2 μM peptidomimetic, simulated gastric fluid pH 1.5, 37° C.; for half-life at 2 μM: read-out: half-life (t1/2) when incubated with simulated gastric fluid
Description: as §1

[4] = Stability in simulated intestinal fluid; type: in vitro ADME; settings: 2 μM peptidomimetic, simulated intestinal fluid pH 7.5, 37° C.; for half-life at 2 μM: read-out: half-life (t1/2) when incubated with simulated intestinal fluid
Description: as §1

[5] = Stability in liver microsomes; type: in vitro ADME; settings: 2 μM peptidomimetic, human liver microsomes, 37° C.; for half-life at 2 μM: pH 7.8, read-out: half-life (t1/2) when incubated with liver microsomes
Description: as §1

Chain of DPP IV (P27487 whole entry, species assumed): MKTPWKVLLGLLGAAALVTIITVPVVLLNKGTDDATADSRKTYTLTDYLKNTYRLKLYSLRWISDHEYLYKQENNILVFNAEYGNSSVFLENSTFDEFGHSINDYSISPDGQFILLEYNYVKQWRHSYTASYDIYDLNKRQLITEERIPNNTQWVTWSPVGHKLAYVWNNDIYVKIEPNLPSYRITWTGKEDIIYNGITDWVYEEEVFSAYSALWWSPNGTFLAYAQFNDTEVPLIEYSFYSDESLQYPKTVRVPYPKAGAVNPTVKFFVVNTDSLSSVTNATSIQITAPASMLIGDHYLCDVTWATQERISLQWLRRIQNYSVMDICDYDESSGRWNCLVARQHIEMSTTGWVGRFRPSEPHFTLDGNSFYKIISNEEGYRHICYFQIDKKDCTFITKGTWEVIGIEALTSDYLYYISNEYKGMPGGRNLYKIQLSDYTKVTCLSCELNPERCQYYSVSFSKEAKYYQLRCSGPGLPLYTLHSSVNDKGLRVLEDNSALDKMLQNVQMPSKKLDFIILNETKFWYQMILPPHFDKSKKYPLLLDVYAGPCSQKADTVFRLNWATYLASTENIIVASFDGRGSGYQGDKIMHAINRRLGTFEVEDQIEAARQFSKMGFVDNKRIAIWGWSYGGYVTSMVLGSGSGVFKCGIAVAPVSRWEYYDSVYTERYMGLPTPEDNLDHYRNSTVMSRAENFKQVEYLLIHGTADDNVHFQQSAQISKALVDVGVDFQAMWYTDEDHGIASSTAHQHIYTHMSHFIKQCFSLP
T1 sequence (P43220 24-463): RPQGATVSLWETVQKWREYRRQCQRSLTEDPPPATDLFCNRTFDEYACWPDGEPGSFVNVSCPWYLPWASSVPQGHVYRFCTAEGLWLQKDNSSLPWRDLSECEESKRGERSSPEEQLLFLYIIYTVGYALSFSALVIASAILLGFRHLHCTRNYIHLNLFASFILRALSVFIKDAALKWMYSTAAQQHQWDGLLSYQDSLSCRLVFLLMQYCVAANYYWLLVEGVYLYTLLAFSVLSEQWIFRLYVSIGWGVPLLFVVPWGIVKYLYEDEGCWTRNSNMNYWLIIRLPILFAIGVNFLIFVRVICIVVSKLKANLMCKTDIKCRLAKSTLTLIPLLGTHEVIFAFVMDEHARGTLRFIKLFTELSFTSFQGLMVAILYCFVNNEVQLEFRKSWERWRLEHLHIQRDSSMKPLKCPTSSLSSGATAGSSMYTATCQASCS

| SMILES | Insulin secretion ([1]; 0.1 nM test compd.) [pg/µg/h] | Insulin secretion ([1]; 1 nM test compd.) [pg/µg/h] | Insulin secretion ([1]; 10 nM test compd.) [pg/µg/h] | Human GLP-1 R activity (cAMP release), % activity with respect to control (Human GLP-1 receptor; 1 nM test compound) [%] | Human GLP-1 R activity (cAMP release), % activity with respect to control (Human GLP-1 receptor; 10 nM test compound) [%] | Human GLP-1 R activity (cAMP release), % activity with respect to control (Human GLP-1 receptor; 100 nM test compound) [%] | Human GLP-1 R activity (cAMP release), % activity with respect to control (Human GLP-1 receptor; 1 μM test compound) [%] | Human GLP-1 R activity (cAMP release), % activity with respect to control (Human GLP-1 receptor; 10 μM test compound) [%] | % degradation of peptidomimetics in 24 h when incubated with DPP-IV enzyme (DPP IV) [%] | half-life (t1/2) when incubated with human plasma [2] | % degradation of peptidomimetics in 24 h when incubated with human plasma [2] [%] | % degradation of peptidomimetics in 24 h when incubated with simulated gastric fluid [3] [%] | half-life at 2 μM [3] [h] | % degradation of peptidomimetics in 24 h when incubated with simulated intestinal fluid [4] [%] | half-life at 2 μM [4] [h] | % degradation of peptidomimetics in 24 h when incubated with liver microsomes [5] [%] | half-life at 2 μM [5] [h] | half-life at 2 μM (DPP IV) [h] | half-life at 2 μM [2] [h] | other results |
| --- | --- | --- | --- | --- | --- | --- | --- | --- | --- | --- | --- | --- | --- | --- | --- | --- | --- | --- | --- | --- |
| CCc1cc(OC)ccc1-c1ccc(CC(NC(=O)[C@H](CC(=O)O)NC(=O)[C@H](CO)NC(=O)[C@@H](NC(=O)[C@H](Cc2ccccc2)NC(=O)[C@@H](NC(=O)CNC(=O)C(CCC#N)NC(=O)C(C)(C)NC(=O)[C@@H](N)Cc2c[nH]cn2)[C@@H](C)O)[C@@H](C)O)C(=O)NC(CCCc2ccc(F)cc2C(F)(F)F)C(N)=O)cc1 (single isomer, unassigned) [compound 80] | 16.2 ± 0.13 | 22.4 ± 0.19 | 36.2 ± 0.09 | 66 ± 0.022 | 97 ± 0.46 | 99 ± 0.41 | 99 ± 0.66 | 99 ± 0.03 | 72 | (9) h | 70 | 100 | 0.5 | 100 | 0.5 | 100 | 0.5 | – | – | – |
| CCc1cc(OC)ccc1-c1ccc(CC(NC(=O)[C@H](CC(=O)O)NC(=O)[C@H](CO)NC(=O)[C@@H](NC(=O)[C@H](Cc2ccccc2)NC(=O)[C@@H](NC(=O)CNC(=O)C(CCC#N)NC(=O)C(C)(C)NC(=O)[C@@H](N)Cc2c[nH]cn2)[C@@H](C)O)[C@@H](C)O)C(=O)NC(CCCc2ccccc2Cl)C(N)=O)cc1 (single isomer, unassigned) [compound 82] | 16.9 ± 0.22 | 22.8 ± 0.31 | 36.7 ± 0.34 | 78 ± 0.12 | 99 ± 0.15 | 99 ± 0.18 | 99 ± 0.03 | 99 ± 0.09 | 00 | – | 00 | 55 | 4 | 00 | > 24 | 84 | 2 | > 24 | > 24 | – |
| CCc1cc(OC)ccc1-c1ccc(CC(NC(=O)[C@H](CC(=O)O)NC(=O)[C@H](CO)NC(=O)[C@@H](NC(=O)[C@H](Cc2ccccc2)NC(=O)[C@@H](NC(=O)CNC(=O)C(CCC#N)NC(=O)C(C)(C)NC(=O)[C@@H](N)Cc2c[nH]cn2)[C@@H](C)O)[C@@H](C)O)C(=O)NC(CCCc2ccc(Cl)cc2C)C(N)=O)cc1 (single isomer, unassigned) [compound 32] | 12.1 ± 0.52 | 14.1 ± 0.16 | 28.0 ± 0.36 | 39 ± 0.11 | 80 ± 0.09 | 88 ± 0.06 | 96 ± 0.14 | 99 ± 0.19 | 75 | (9) h | 77 | 100 | 0.5 | 100 | 0.5 | 100 | 0.5 | – | – | – |
| CCc1cc(OC)ccc1-c1ccc(CC(NC(=O)[C@H](CC(=O)O)NC(=O)[C@H](CO)NC(=O)[C@@H](NC(=O)[C@H](Cc2ccccc2)NC(=O)[C@@H](NC(=O)CNC(=O)C(CCC#N)NC(=O)C(C)(C)NC(=O)[C@@H](N)Cc2c[nH]cn2)[C@@H](C)O)[C@@H](C)O)C(=O)NC(CCCc2ccc(C(F)(F)F)cc2F)C(N)=O)cc1 (single isomer, unassigned) [compound 81] | 17.1 ± 0.15 | 23.1 ± 0.12 | 37.0 ± 0.19 | 69 ± 0.09 | 98 ± 0.07 | 99 ± 0.04 | 99 ± 0.01 | 99 ± 0.08 | 00 | – | 00 | 50 | 4 | 00 | > 24 | 86 | 2 | > 24 | > 24 | – |
| CCc1cc(OC)ccc1-c1ccc(CC(NC(=O)[C@H](CC(=O)O)NC(=O)[C@H](CO)NC(=O)[C@@H](NC(=O)[C@H](Cc2ccccc2)NC(=O)[C@@H](NC(=O)CNC(=O)[C@H](CCC(N)=O)NC(=O)[C@H](CO)NC(=O)[C@@H](N)Cc2c[nH]cn2)[C@@H](C)O)[C@@H](C)O)C(=O)NC(CCCc2ccccc2C(F)(F)F)C(N)=O)cc1 (single isomer, unassigned) [compound 47] | 13.1 ± 0.11 | 14.9 ± 0.17 | 28.8 ± 0.44 | 55 ± 0.16 | 89 ± 0.05 | 93 ± 0.09 | 99 ± 0.02 | 99 ± 0.04 | 76 | – | 78 | 12 | – | 55 | – | 79 | 1 | 9 | 8 | half-life (t1/2) when incubated with simulated gastric fluid [3]: (8) h; half-life (t1/2) when incubated with simulated intestinal fluid [4]: (6) h |
